Experimental data: article PMC9754190, “Human CYP2B6 produces oxylipins from polyunsaturated fatty acids and reduces diet-induced obesity” (PLOS ONE, 2022)

How the values were obtained:
CYP2B6 [1] = target: T1, CYP2B6 (Homo sapiens, UniProt P20813); test: biochemical
T1 sequence (P20813 1-491): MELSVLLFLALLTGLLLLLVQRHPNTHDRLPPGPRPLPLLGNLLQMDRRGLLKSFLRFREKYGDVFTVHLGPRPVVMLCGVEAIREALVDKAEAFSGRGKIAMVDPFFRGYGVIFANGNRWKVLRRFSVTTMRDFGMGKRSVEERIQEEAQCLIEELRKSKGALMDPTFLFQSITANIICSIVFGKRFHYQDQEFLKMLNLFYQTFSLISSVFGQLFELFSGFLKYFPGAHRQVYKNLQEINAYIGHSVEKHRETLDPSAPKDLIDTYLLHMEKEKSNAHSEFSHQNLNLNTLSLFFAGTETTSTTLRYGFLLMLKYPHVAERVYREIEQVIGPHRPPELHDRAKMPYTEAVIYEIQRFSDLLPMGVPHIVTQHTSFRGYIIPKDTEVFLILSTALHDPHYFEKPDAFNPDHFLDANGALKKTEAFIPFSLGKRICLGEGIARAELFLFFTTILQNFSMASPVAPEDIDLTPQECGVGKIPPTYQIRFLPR

CYP2B6 [2] = target: T1, CYP2B6; test: Vivid CYP2B6 Blue fluorescence inhibition assay with recombinant baculosomes; type: biochemical; set-up: CYP2B6-containing baculosomes

IC50 (CYP2B6 [1]) [nM]	SMILES	IC50 (CYP2B6 [2]) [nM]
4480	CC/C=C\C/C=C\C/C=C\CCCCCCCC(=O)O [ALA, α-linolenic acid]	–
–	CCCCC/C=C\C/C=C\C/C=C\C/C=C\CCCC(=O)O [AA, arachidonic acid]	1510
–	CC/C=C\C/C=C\C/C=C\C/C=C\C/C=C\C/C=C\CCC(=O)O [DHA, docosahexaenoic acid]	2400
–	CCCCC/C=C\C/C=C\CCCCCCCC(=O)O [LA, linoleic acid]	2900
